According to PMC12366332 (Applied and Environmental Microbiology, 2025):
Where two headings read alike, the source gives them in different places. Ends that are not written are not given here. Peptide text beside a SMILES is read from it. * marks the point of attachment. Hexanoyl = CCCCCC(=O)*

How the values were obtained:
[1] = tested on: X. fastidiosa subsp. fastidiosa IVIA 5387.2; conditions: for EC50: 3 h
tobacco leaves = conditions: 150 µM; after 48 h
horse erythrocytes = conditions: red cells of horse, 50 µM
E. coli 0111:B4 LPS = type: biochemical, Escherichia coli

Compound	Bactericidal activity Reduction in viability (Log N0/N) ([1]; 50 µM)	Phytotoxicity: diameter of the lesion (tobacco leaves) [mm]	Hemolytic activity (%) (horse erythrocytes)	Bactericidal activity Level ([1]; 50 µM)	LPS neutralization Ratio (treatment/NTC) (E. coli 0111:B4 LPS)	further results
CCCCCC(=O)NCCCC[C@H](NC(=O)[C@@H](NC(=O)[C@H](CCCCN)NC(=O)[C@H](CCCCN)NC(=O)[C@H](Cc1ccccc1)NC(=O)[C@H](CC(C)C)NC(=O)[C@H](CCCCN)NC(=O)[C@H](CCCCN)NC(C)=O)[C@@H](C)CC)C(=O)N[C@@H](CCCCN)C(=O)N[C@@H](Cc1ccc(O)cc1)C(=O)N[C@@H](CC(C)C)C(N)=O [BP375, Ac-KKLFKKIK(COC5H11)KYL-NH2] (Ac-KKLFKKIK(Hexanoyl)KYL-NH2)	1,37 Log N0/N	10	23	–	–	–
CCCCCC(=O)NCCCC[C@H](NC(=O)[C@H](CCCCN)NC(=O)[C@H](CC(C)C)NC(=O)[C@@H](NC(=O)[C@H](CCCCN)NC(=O)[C@H](CCCCN)NC(=O)[C@H](Cc1ccccc1)NC(=O)[C@H](CC(C)C)NC(=O)[C@H](CCCCN)NC(=O)[C@H](CCCCN)NC(C)=O)[C@@H](C)CC)C(=O)N[C@@H](CC(C)C)C(N)=O [BP377, Ac-KKLFKKILKK(COC5H11)L-NH2] (Ac-KKLFKKILKK(Hexanoyl)L-NH2)	–	11	71	Very High (key: Very High: very high bactericidal activity (>2.5 log); High: high bactericidal activity (between 2.0 and 2.5 log); Moderate: a moderate activity (between 1.5 and 2.0 log); Low: low active (<1.5 log))	–	Bactericidal activity Reduction in viability (Log N0/N) ([1]; 3.1 µM): 1,34 Log N0/N; Bactericidal activity Reduction in viability (Log N0/N) ([1]; 12.5 µM): 1,88 Log N0/N; EC50 [1]: 3.67 µM
CCCC(=O)NCCCC[C@H](NC(=O)[C@@H](NC(=O)[C@H](CCCCN)NC(=O)[C@H](CCCCN)NC(=O)[C@H](Cc1ccccc1)NC(=O)[C@H](CC(C)C)NC(=O)[C@H](CCCCN)NC(=O)[C@H](CCCCN)NC(C)=O)[C@@H](C)CC)C(=O)N[C@@H](CCCCN)C(=O)N[C@@H](Cc1ccc(O)cc1)C(=O)N[C@@H](CC(C)C)C(N)=O [BP387, Ac‐KKLFKKIK(COC3H7)KYL‐NH2]	1,96 Log N0/N	8	4	Moderate (key: Very High: very high bactericidal activity (>2.5 log); High: high bactericidal activity (between 2.0 and 2.5 log); Moderate: a moderate activity (between 1.5 and 2.0 log); Low: low active (<1.5 log))	–	Bactericidal activity Reduction in viability (Log N0/N) ([1]; 12.5 µM): 0,83 Log N0/N
CCCC(=O)NCCCC[C@H](NC(=O)[C@H](CCCCN)NC(=O)[C@H](CC(C)C)NC(=O)[C@@H](NC(=O)[C@H](CCCCN)NC(=O)[C@H](CCCCN)NC(=O)[C@H](Cc1ccccc1)NC(=O)[C@H](CC(C)C)NC(=O)[C@H](CCCCN)NC(=O)[C@H](CCCCN)NC(C)=O)[C@@H](C)CC)C(=O)N[C@@H](CC(C)C)C(N)=O [BP389, Ac-KKLFKKILKK(COC3H7)L-NH2]	–	7	9	High (key: Very High: very high bactericidal activity (>2.5 log); High: high bactericidal activity (between 2.0 and 2.5 log); Moderate: a moderate activity (between 1.5 and 2.0 log); Low: low active (<1.5 log))	–	Bactericidal activity Reduction in viability (Log N0/N) ([1]; 3.1 µM): 0,02 Log N0/N; Bactericidal activity Reduction in viability (Log N0/N) ([1]; 12.5 µM): 1,51 Log N0/N
CCCCCCCCCCCC(=O)NCCCC[C@H](NC(=O)[C@H](CCCCN)NC(C)=O)C(=O)N[C@@H](CC(C)C)C(=O)N[C@@H](Cc1ccccc1)C(=O)N[C@@H](CCCCN)C(=O)N[C@@H](CCCCN)C(=O)N[C@H](C(=O)N[C@@H](CC(C)C)C(=O)N[C@@H](CCCCN)C(=O)N[C@@H](Cc1ccc(O)cc1)C(=O)N[C@@H](CC(C)C)C(N)=O)[C@@H](C)CC [BP393, Ac-KK(COC11H23)LFKKILKYL-NH2]	–	6	–	High (key: Very High: very high bactericidal activity (>2.5 log); High: high bactericidal activity (between 2.0 and 2.5 log); Moderate: a moderate activity (between 1.5 and 2.0 log); Low: low active (<1.5 log))	–	EC50 [1]: 20.1 µM
CCCC(=O)NCCCC[C@H](NC(=O)[C@H](CCCCN)NC(=O)[C@@H](Cc1ccccc1)NC(=O)[C@H](CC(C)C)NC(=O)[C@H](CCCCN)NC(=O)[C@H](CCCCN)NC(C)=O)C(=O)N[C@H](C(=O)N[C@@H](CC(C)C)C(=O)N[C@@H](CCCCN)C(=O)N[C@@H](Cc1ccc(O)cc1)C(=O)N[C@@H](CC(C)C)C(N)=O)[C@@H](C)CC [BP473, Ac-KKLfKK(COC3H7)ILKYL-NH2]	–	4	7	Very High (key: Very High: very high bactericidal activity (>2.5 log); High: high bactericidal activity (between 2.0 and 2.5 log); Moderate: a moderate activity (between 1.5 and 2.0 log); Low: low active (<1.5 log))	–	Bactericidal activity Reduction in viability (Log N0/N) ([1]; 3.1 µM): 0,64 Log N0/N; EC50 [1]: 4.75 µM
CCCC(=O)NCCCC[C@H](NC(=O)[C@@H](NC(=O)[C@H](CCCCN)NC(=O)[C@H](CCCCN)NC(=O)[C@@H](Cc1ccccc1)NC(=O)[C@H](CC(C)C)NC(=O)[C@H](CCCCN)NC(=O)[C@H](CCCCN)NC(C)=O)[C@@H](C)CC)C(=O)N[C@@H](CCCCN)C(=O)N[C@@H](Cc1ccc(O)cc1)C(=O)N[C@@H](CC(C)C)C(N)=O [BP474, Ac-KKLfKKIK(COC3H7)KYL-NH2]	1,76 Log N0/N	2	0	Moderate (key: Very High: very high bactericidal activity (>2.5 log); High: high bactericidal activity (between 2.0 and 2.5 log); Moderate: a moderate activity (between 1.5 and 2.0 log); Low: low active (<1.5 log))	–	–
CC[C@H](C)[C@H](NC(=O)CN)C(=O)NCC(=O)N[C@@H](C)C(=O)N[C@H](C(=O)N[C@@H](CC(C)C)C(=O)N[C@@H](CCCCN)C(=O)N[C@H](C(=O)N[C@@H](CC(C)C)C(=O)N[C@H](C(=O)N[C@H](C(=O)NCC(=O)N[C@@H](CC(C)C)C(=O)N1CCC[C@H]1C(=O)N[C@@H](C)C(=O)N[C@@H](CC(C)C)C(=O)N[C@H](C(=O)N[C@@H](CO)C(=O)N[C@@H](Cc1c[nH]c2ccccc12)C(=O)N[C@H](C(=O)N[C@@H](CCCCN)C(=O)N[C@@H](CCCNC(=N)N)C(=O)N[C@@H](CCCCN)C(=O)N[C@@H](CCCNC(=N)N)C(=O)N[C@@H](CCC(N)=O)C(=O)N[C@@H](CCC(N)=O)C(N)=O)[C@@H](C)CC)[C@@H](C)CC)[C@@H](C)O)[C@@H](C)O)C(C)C)C(C)C [Melittin, reference compound]	–	10	–	–	–	–
Ac-LKLFKKILKVL-NH2 [BP022]	1,87 Log N0/N	–	–	Moderate (key: Very High: very high bactericidal activity (>2.5 log); High: high bactericidal activity (between 2.0 and 2.5 log); Moderate: a moderate activity (between 1.5 and 2.0 log); Low: low active (<1.5 log))	0,61	–
CF-KKLfKK(COC3H7)ILKYL-NH2 [BP473-CF]	–	–	–	–	–	Bactericidal activity Reduction in viability (Log N0/N) [1]: 0,91 Log N0/N
FKLFKKILKVL-NH2 [BP013]	1,03 Log N0/N	–	–	–	1,13	–
KKLFKKILKFL-NH2 [BP076]	0,91 Log N0/N	–	–	–	0,36	–
KKLFKKILKKL-NH2 [BP016]	0,00 Log N0/N	–	–	–	1,13	–
KKLFKKILKVL-NH2 [BP015]	1,13 Log N0/N	–	–	–	1,10	–
KKLFKKILKYL-NH2 [BP100]	1,92 Log N0/N	–	–	Moderate (key: Very High: very high bactericidal activity (>2.5 log); High: high bactericidal activity (between 2.0 and 2.5 log); Moderate: a moderate activity (between 1.5 and 2.0 log); Low: low active (<1.5 log))	0,34	–
KKLFKkILKYL-NH2 [BP146]	1,25 Log N0/N	–	–	–	0,73	–
KKLfKKILKYL-NH2 [BP143]	0,89 Log N0/N	–	–	–	0,70	–
KKVVFWVKFk-NH2 [BP442]	1,09 Log N0/N	–	–	Low (key: Very High: very high bactericidal activity (>2.5 log); High: high bactericidal activity (between 2.0 and 2.5 log); Moderate: a moderate activity (between 1.5 and 2.0 log); Low: low active (<1.5 log))	0,76	–
KKlFKKILKYL-NH2 [BP144]	0,68 Log N0/N	–	–	–	1,07	–
KkLFKKILKYL-NH2 [BP145]	1,08 Log N0/N	–	–	–	0,76	–
RKVRGPP-NH2 [Lf(28-34), RKVRGPP-NH2, reference compound]	–	0	1	–	–	–
c(LLKKKWKKLQ) (cyclic) [BPC098W]	0,78 Log N0/N	–	–	Low (key: Very High: very high bactericidal activity (>2.5 log); High: high bactericidal activity (between 2.0 and 2.5 log); Moderate: a moderate activity (between 1.5 and 2.0 log); Low: low active (<1.5 log))	0,83	–
